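Following 48 hours of exposure in 96-well plates, responses at five concentrations were used to interpolate endpoints linearly. GI50: concentration for 50% inhibition of growth. TGI marks complete inhibition of growth.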
What was measured:
Experiment in all cases: NCI anticancer screen, dose series, 48 h; in the data active = GI50 below about 0.43 µM; inactive = the rest
LOX IMVI melanoma = system: LOX IMVI melanoma
SW-620 colon = system: SW-620 colon
HOP-92 NSCLC = system: HOP-92 NSCLC
RXF 393 renal = system: RXF 393 renal
NCI-H226 lung = system: NCI-H226 lung
OVCAR-8 ovarian = system: OVCAR-8 ovarian
TK-10 renal = system: TK-10 renal
NCI-H23 lung = system: NCI-H23 lung
SR leukemia = system: SR leukemia

Nc1nc(N)c(-c2ccccc2)c(C(=O)Nc2nccs2)n1
> 100 µM: TGI (LOX IMVI melanoma) | TGI (SW-620 colon) | TGI (HOP-92 NSCLC) | TGI (RXF 393 renal) | TGI (NCI-H226 lung) | TGI (OVCAR-8 ovarian) | TGI (TK-10 renal) | TGI (NCI-H23 lung)

O=C(O)C12C3C4C1C1C2C3C41I (stereo not drawn)
> 100 µM: TGI (LOX IMVI melanoma) | TGI (SW-620 colon) | TGI (HOP-92 NSCLC) | TGI (NCI-H226 lung) | TGI (OVCAR-8 ovarian) | TGI (TK-10 renal) | TGI (NCI-H23 lung)

CCCNc1ncnc2c1cnn2C
> 100 µM: TGI (LOX IMVI melanoma) | TGI (SW-620 colon) | TGI (HOP-92 NSCLC) | TGI (NCI-H226 lung) | TGI (SR leukemia) | TGI (OVCAR-8 ovarian) | TGI (TK-10 renal) | TGI (NCI-H23 lung)

COC(=O)C1=C(C)N(NC(=O)Nc2ccccc2)C2(N)N(NC(=O)Nc3ccccc3)C(C)=C(C(=O)OC)C12C(=O)OC (stereo not drawn)
> 100 µM: TGI (LOX IMVI melanoma) | TGI (SW-620 colon) | TGI (HOP-92 NSCLC) | TGI (RXF 393 renal) | TGI (NCI-H226 lung) | TGI (OVCAR-8 ovarian) | TGI (TK-10 renal) | TGI (NCI-H23 lung)

O=c1cccccc1[O-].O=c1cccccc1[O-].O=c1cccccc1[O-].[Dy+3]
97.6 µM: TGI (OVCAR-8 ovarian)
79 µM: TGI (RXF 393 renal)
> 100 µM: TGI (LOX IMVI melanoma) | TGI (SW-620 colon) | TGI (HOP-92 NSCLC) | TGI (NCI-H226 lung) | TGI (TK-10 renal)
66.4 µM: TGI (NCI-H23 lung)

CCCCCCCCCCCCCCCC(=O)NCC(OCC)OCC
> 100 µM: TGI (LOX IMVI melanoma) | TGI (SW-620 colon) | TGI (HOP-92 NSCLC) | TGI (RXF 393 renal) | TGI (NCI-H226 lung) | TGI (OVCAR-8 ovarian) | TGI (TK-10 renal) | TGI (NCI-H23 lung)

CN1C/C(=C\c2ccco2)c2nc(N)nc(-c3ccco3)c2C1
> 100 µM: TGI (LOX IMVI melanoma) | TGI (SW-620 colon) | TGI (RXF 393 renal) | TGI (NCI-H226 lung) | TGI (OVCAR-8 ovarian) | TGI (TK-10 renal) | TGI (NCI-H23 lung)

CC1=C2[C@@H](c3ccccc3)C3C=CC2(C=C3C(F)(F)F)N(C(=O)NC2CCCCC2)C1=O (stereo partly drawn)
> 100 µM: TGI (LOX IMVI melanoma) | TGI (SW-620 colon) | TGI (HOP-92 NSCLC) | TGI (RXF 393 renal) | TGI (OVCAR-8 ovarian) | TGI (TK-10 renal) | TGI (NCI-H23 lung)
66.8 µM: TGI (SR leukemia)

Cc1nc(-c2cccnc2)sc1C(=O)/C=C/c1ccc(Cl)cc1Cl
> 100 µM: TGI (LOX IMVI melanoma) | TGI (SW-620 colon) | TGI (HOP-92 NSCLC) | TGI (RXF 393 renal) | TGI (NCI-H226 lung) | TGI (OVCAR-8 ovarian) | TGI (TK-10 renal) | TGI (NCI-H23 lung)

COC(=O)CCSC(=O)Nc1ccccc1Cl
> 100 µM: TGI (LOX IMVI melanoma) | TGI (SW-620 colon) | TGI (NCI-H226 lung) | TGI (SR leukemia) | TGI (OVCAR-8 ovarian) | TGI (TK-10 renal) | TGI (NCI-H23 lung)

O=[N+]([O-])c1cccc(C2=NOC3CCCC23)c1 (stereo not drawn)
> 100 µM: TGI (SW-620 colon) | TGI (HOP-92 NSCLC) | TGI (NCI-H226 lung) | TGI (OVCAR-8 ovarian) | TGI (TK-10 renal) | TGI (NCI-H23 lung)

CCOC(=O)C1C(=O)C(=O)N2CCc3c([nH]c4ccccc34)C12 (stereo not drawn)
> 100 µM: TGI (SW-620 colon) | TGI (HOP-92 NSCLC) | TGI (RXF 393 renal) | TGI (SR leukemia) | TGI (OVCAR-8 ovarian) | TGI (TK-10 renal) | TGI (NCI-H23 lung)

NC1=NN(c2ccccc2)C(=O)C1/C(=N\NC(=O)c1cc2ccccc2cc1O)C(=O)Nc1ccc(Cl)cc1 (stereo not drawn)
71.3 µM: TGI (HOP-92 NSCLC)
> 100 µM: TGI (SW-620 colon) | TGI (NCI-H226 lung) | TGI (OVCAR-8 ovarian) | TGI (TK-10 renal)
77.3 µM: TGI (NCI-H23 lung)

CC1=CC(=O)N2[C@H](OC[C@@H]2C(C)C)O1
> 100 µM: TGI (SW-620 colon) | TGI (HOP-92 NSCLC) | TGI (RXF 393 renal) | TGI (NCI-H226 lung) | TGI (SR leukemia) | TGI (OVCAR-8 ovarian) | TGI (TK-10 renal) | TGI (NCI-H23 lung)

CC(C)=NO.CC(C)=NO.CC(C)=NO.CC(C)=NO.[Ti]
inactive: GI50 (LOX IMVI melanoma) > 100 µM | GI50 (SW-620 colon) > 100 µM | GI50 (HOP-92 NSCLC) > 100 µM | GI50 (RXF 393 renal) > 100 µM | GI50 (NCI-H226 lung) > 100 µM | GI50 (OVCAR-8 ovarian) > 100 µM | GI50 (TK-10 renal) > 100 µM
> 100 µM: TGI (LOX IMVI melanoma) | TGI (SW-620 colon) | TGI (HOP-92 NSCLC) | TGI (RXF 393 renal) | TGI (NCI-H226 lung) | TGI (OVCAR-8 ovarian) | TGI (TK-10 renal)

CCNC(=O)O/N=C1/C=C2CC[C@@H]3C(CC[C@@]4(C)C3CC[C@@H]4OC(=O)NCC)[C@@]2(C)CC1 (stereo partly drawn)
11.9 µM: TGI (LOX IMVI melanoma)
16.3 µM: TGI (OVCAR-8 ovarian)
8.8 µM: TGI (TK-10 renal)
16.7 µM: TGI (HOP-92 NSCLC)
10.8 µM: TGI (NCI-H23 lung)
11.4 µM: TGI (SW-620 colon)
5.3 µM: TGI (RXF 393 renal)

O=[N+]([O-])C1(CO)COC(CCc2ccccc2)OC1 (stereo not drawn)
> 100 µM: TGI (LOX IMVI melanoma) | TGI (SW-620 colon) | TGI (HOP-92 NSCLC) | TGI (RXF 393 renal) | TGI (SR leukemia) | TGI (OVCAR-8 ovarian) | TGI (TK-10 renal) | TGI (NCI-H23 lung)

CCOC(=O)NC/C=C/CO
> 100 µM: TGI (SW-620 colon) | TGI (RXF 393 renal) | TGI (NCI-H226 lung) | TGI (SR leukemia) | TGI (OVCAR-8 ovarian) | TGI (TK-10 renal)

O=NNc1nc(-c2ccccn2)nc2ccccc12
62.5 µM: TGI (NCI-H226 lung)
> 100 µM: TGI (SR leukemia) | TGI (OVCAR-8 ovarian) | TGI (TK-10 renal) | TGI (NCI-H23 lung)
27.7 µM: TGI (SW-620 colon)

CCCCc1c2c(nc3c1CC/C(=C\c1ccccc1)C3=O)CCCC2
21.1 µM: TGI (TK-10 renal)
4.79 µM: TGI (OVCAR-8 ovarian)
5.32 µM: TGI (SW-620 colon)
3.48 µM: TGI (LOX IMVI melanoma)
11.5 µM: TGI (SR leukemia)
17.7 µM: TGI (NCI-H23 lung)
6.35 µM: TGI (RXF 393 renal)

O=C1COc2cc3c(cc2N1)SCC(=O)N3
> 100 µM: TGI (SW-620 colon) | TGI (HOP-92 NSCLC) | TGI (NCI-H226 lung) | TGI (SR leukemia) | TGI (OVCAR-8 ovarian) | TGI (TK-10 renal) | TGI (NCI-H23 lung)

CN(C)c1ccc(/C=C2\Cc3ccccc3C2=O)cc1Br
> 100 µM: TGI (SW-620 colon) | TGI (OVCAR-8 ovarian) | TGI (TK-10 renal) | TGI (NCI-H23 lung)

Reference: PubChem BioAssay (NCI)
